Test [1] deals with gastric secretion. Nature of the test: gastric anti-secretory activity, pylorus ligature technique. Particulars: rat, i.d., read-out: Antisecretory activ. test ED50. It counts as in vivo, rats. The procedure: The gastric anti-secretory activity of the compounds of the invention was evaluated in rats by the pylorus ligature technique (H. Shay et al., Gastroenterology 5, 43, 1945).

Test [2] concerns stress ulcers. The test can be described thus: inhibition of stress ulcers in rats (restraint in water at 23° C. for 4 hours). In kind it is in vivo. Particulars: po, rat, p.o., read-out: Stress Test ED50. The procedure:
The anti-ulcerogenic activity of the compounds of the invention is shown also by the fact that they are active in the test of the inhibition of stress ulcers in rats (restraint in water at 23° C. for 4 hours), according to the method of M. Usardi et al. (Prostaglandins, 8, 43, 1974).

Test [3] concerns histamine H2-receptor. The test can be described thus: histamine H2-receptor antagonist activity in vitro on the guinea pig right atrium. In kind it is cell-based. Particulars: screening dose 1.10^-5 M. The procedure:
The compounds of the invention were assayed for histamine H2 -receptor antagonist activity in vitro on the guinea pig right atrium. Male guinea pigs were killed by a blow on the head and the heart was quickly excised and placed in oxygenated Ringer Locke solution of the following composition (g/l): NaCl 9, KCl 0.42, CaCl2 0.24, NaHCO3 0.5, Glucose 1. Atria were dissected away from the rest of the heart, freed from connective tissue, suspended in 20 ml organ bath containing Ringer Locke solution thermoregulated at 37° C., and carboxygenated with 95% O2 and 5% CO2. Atria spontaneously beating were allowed to adjust to the bath conditions for at least 30 minutes prior to the experiment. Histamine was added to the bath in cumulative fashion starting from 3×10^-7 M till 1×10^-4 M. The histamine-induced increase in atrial rate was allowed to plateau before the next successive concentration was added. After washing and waiting for the recovery of atria rate, compounds were added 5 minutes before repeating the cumulative dose response curve with histamine.
A compound is considered an H2 -receptor antagonist if it is able to shift the dose response curve of histamine to the right of the concentration <1×10^-5 M.

For test [4], the system named is duodenal ulcers, induced by cysteamine. Nature of the test: inhibition of duodenal ulcers induced in rats by cysteamine. In kind it is in vivo. The settings on record: po; rat, p.o.; inhibition of ulcer index; read-out: Cysteamine Test ED50. The procedure: The inhibition of duodenal ulcers, induced in rats by cysteamine, was evaluated for the test of compounds as percentage inhibition of ucler index [sum of the lesioned areas per rat (mm^2)] according to the method of Fuji Y. et at, Jap. J. Pharm. 25, 663, 1975.

Test [5] deals with acetyl salicylic acid (ASA) induced gastric ulcers. Nature of the test: inhibition of acetyl salicylic acid (ASA) induced gastric ulcers in rats. In kind it is in vivo. Particulars: po; rat, p.o.; read-out: ASA Test ED50. The procedure:
The activity of these compounds was assessed in rats in anti-ulcer and anti-secretory tests. The anti-ulcerogenic activity of the compounds of the invention is shown, for example, by the fact that they are active in the test of the inhibition of acetyl salicylic acid (ASA) induced gastric ulcers in rats (M. Hemmati et al., Pharmacology, 9, 374, 1973).

For `CC(C)NC(=O)N1CCc2nc(N=C(N)N)sc2C1` [Example 1, 2-Guanidino-5-isopropylcarbamoyl-4,5,6,7-teteahydrothiazolo-[5,4-c]pyridine], the ED50 (as a rule, the midpoint of the dose-response relation) came to 0.33 mg/kg in test [1], 2.9 mg/kg in test [2], 0.4 mg/kg in test [4] and 0.017 mg/kg in test [5]. In test [3], the Anti-H2 activity test entry was “active”.
